Laboratory results reported in patent US8927462B2, “Method for identifying HLA complexes associated with adverse drug reactions” (Academia Sinica, priority 2010, dated 2015).

Key:
HLA-B*1503 = HLA-B*1503 (Homo sapiens, UniProt P01889, A329T/A93T/A95T/C349S/D201E/D98Y/E187L/E204Q/K202T/N87E/Q94N/R155S/R180L/S121R/S35A/V306I/V36M/Y140S/Y91S); assay: Surface plasmon resonance (SPR) binding to soluble HLA-B*1503; settings: for binding to other HLA-B molecules (SPR): HLA-B*1503: at therapeutic concentrations
HLA-B*4001 = HLA-B*4001 (Homo sapiens, UniProt P01889, A65T/A93T/A95T/D138N/D98Y/E176V/E69K/N87E/Q56L/Q94N/R180L/S121R/S35A/S48T/T167S/V36M/W171L/Y33H/Y91S); assay: Surface plasmon resonance (SPR) binding to soluble HLA-B*4001; settings: for binding to other HLA-B molecules (SPR): HLA-B*4001: at therapeutic concentrations
HLA-B*1501 = target: T1, HLA-B*1501 (Homo sapiens, UniProt P01889, A329T/A93T/A95T/C349S/D201E/D98Y/E187L/E204Q/E69M/E70A/K202T/N87E/Q94N/R155S/R180W/S121R/S35A/S48A/V306I/V36M/Y140S/Y91S); assay: Surface plasmon resonance (SPR) binding to soluble HLA-B*1501; settings: for binding to other HLA-B molecules (SPR): HLA-B*1501: at therapeutic concentrations
T1 construct: Complexes containing soluble HLA-B*1501 or 1503 and β2-microglobulin were prepared following the same procedure described above; made in house

HLA-B*5101 = HLA-B*5101 (Homo sapiens, UniProt P01889, A329T/A93T/A95T/C349S/D138N/D201E/D98Y/E187L/E204Q/E69T/G107R/I218V/K202T/L105A/L119W/N104I/Q94N/R106L/R155S/R180L/S101N/S121T/S35A/S48A/V306I/V36M/Y195H/Y91F); assay: Surface plasmon resonance (SPR) binding to soluble HLA-B*5101; settings: for binding to other HLA-B molecules (SPR): HLA-B*5101: at therapeutic concentrations
[1] = system: CBZ-specific CD8+ T cells; assay: [3H] thymidine incorporation assay, T cell proliferation with fixed and non-fixed B-LCLs; assay type: cell-based, human; settings: fixed and unfixed autologous B-LCL; FIG. 4
Procedure: (§1) PBMC were isolated by the density-gradient Ficoll-Paque method according to the manufacturer's instructions (GE Healthcare Company, Piscataway, N.J., USA). […] After 3˜4 times of restimulation, CD8^+ T cells were sorted out for further functional assays. T cells were cultured with RPMI-HS medium consisted of RPMI 1640 supplemented with 10% heat-inactivated human type AB serum (Labquid Inc, Ontario, Calif.) and 50 U/ml IL-2 (R&D Systems, Minneapolis, Minn., USA). EBV-transformed B-cell lines (B-LCL) were generated by transforming the donor's PBMCs with supernatant from the EBV-producing cell lines B9-85.
(§2) Irradiated APCs (10^3) and T cells (10^4) were incubated with a test compound for 48 hours, and the proliferation of T cells was measured by incorporation of [^3H] thymidine. For fixation assay, autologous B-LCLs were pretreated with 0.05% paraformaldehyde for 30 s. For pulsing experiments, drugs were preincubated with B-LCLs overnight. B-LCLs were washed repeatedly to remove noncovalently bound drug, and then incubated with T cells.

[2] = system: peptides bound to the soluble HLA-B*1502-β2-microglobulin complex; assay: Analysis of HLA-B-bound drug-modified peptides by liquid chromatography-tandem mass spectrometry (C1R-HLA-B*1502 clone treated with CBZ); set-up: species or system human; settings: C1R-HLA-B*1502 culture, 50 μg/mL for 48 hours; LC-tandem MS of <3-kDa fraction
autologous B-LCL cells = assay: 51Cr-release cytotoxicity assay, CBZ-specific CD8+ T cells against drug-pulsed autologous B-LCL; assay type: cell-based, human; settings: B-LCL pulsed with 25 μg/ml drug overnight at 37° C. and washed out before the cytotoxicity assay; FIG. 3
Procedure: as §1
as §2, with “B-LCLs were washed repeatedly to remove noncovalently bound drug, and then incubated with T cells.” left out
B-LCLs, preincubated with IFN-γ (R&D Systems, Minneapolis, Minn., USA) overnight, were first incubated with ^51Cr (Perkin Elmer, Waltham, Mass., USA) for 1 hr at 37° C. […] Radioactivity in the supernatant from each wells was measured by a Topcount (Packard Biosciences, Meriden, Conn., USA). The percentage of specific lysis was calculated as follows: (^51Cr release in the test well−spontaneous ^51Cr release)/(maximum ^51Cr release−spontaneous ^51Cr release).

For `CC1(C)O[C@@H]2[C@@H](CO[C@@]3(COS(N)(=O)=O)OC(C)(C)O[C@@H]23)O1` [TOP, topiramate], the “binding to other HLA-B molecules (SPR): HLA-B*1503” value (shortened to “binding … (SPR): HLA-B*1503”) (HLA-B*1503) was “did not bind”, the “binding to other HLA-B molecules (SPR): HLA-B*4001” value (shortened to “binding … (SPR): HLA-B*4001”) (HLA-B*4001) was “did not bind” and the “binding to other HLA-B molecules (SPR): HLA-B*1501” value (shortened to “binding … (SPR): HLA-B*1501”) (HLA-B*1501) was “did not bind”. For the same compound, the “binding to other HLA-B molecules (SPR): HLA-B*5101” value (shortened to “binding … (SPR): HLA-B*5101”) (HLA-B*5101) was “did not bind”.
`CC[C@@H](C(N)=O)N1CCCC1=O` [LEV, levetiracetam] was tested, and the “binding … (SPR): HLA-B*1503” value (HLA-B*1503) was “did not bind”, the “binding … (SPR): HLA-B*4001” value (HLA-B*4001) was “did not bind” and the “binding … (SPR): HLA-B*1501” value (HLA-B*1501) was “did not bind”. The “binding … (SPR): HLA-B*5101” value (HLA-B*5101) was “did not bind”.
In the case of `NCC1(CC(=O)O)CCCCC1` [GAB, gabapentin], the “presentation by B-LCL and activation (proliferation) of CBZ-specific CD8+ T cells” value [1] is reported as “negative results”, the “binding … (SPR): HLA-B*1503” value (HLA-B*1503) is reported as “did not bind” and the “binding … (SPR): HLA-B*4001” value (HLA-B*4001) is reported as “did not bind”. For the same compound, the “binding … (SPR): HLA-B*1501” value (HLA-B*1501) was “did not bind” and the “binding … (SPR): HLA-B*5101” value (HLA-B*5101) was “did not bind”.
In the case of `NC(=O)N1c2ccccc2C=Cc2ccccc21` [CBZ, carbamazepine], the “presentation by B-LCL and activation (proliferation) of CBZ-specific CD8+ T cells” value [1] is reported as “able to be presented by both fixed and unfixed autologous B-LCL and activated”, the “binding to HLA-B*1503 (SPR)” value (HLA-B*1503; FIG. 6) is reported as “neither CBZ nor its seven analogs (see the Compounds section above) binds” and the “binding to HLA-B*4001 (SPR)” value (HLA-B*4001; FIG. 6) is reported as “did not bind”. The “binding to HLA-B*1501 (SPR)” value (HLA-B*1501; FIG. 6) was “neither CBZ nor its seven analogs (see the Compounds section above) binds”, the “covalent binding of drug to HLA-B*1502-bound peptides” value [2] was “does not covalently bind to peptides” and the “response (specific lysis) of CBZ-specific CD8+ T cells to pulsed autologous B-LCL” value (autologous B-LCL cells) was “none of the CBZ-specific CD8^+ T cells responded”. For the same compound, the “binding to HLA-B*5101 (SPR)” value (HLA-B*5101; FIG. 6) was “did not bind”.
